Data as given in ChEMBL document CHEMBL1201862, “PubChem BioAssay data set” (2004).
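Tested at 5 concentrations; 48 h exposure; 96-well plates; endpoints linearly interpolated, else capped at highest concentration. At the GI50, growth is halved.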 Activity calls are given as the source filed them. No stated cut-off is given here; in the data, active = GI50 up to about 1.1 µM and inactive = higher.

Legend:
Assay in all cases: DTP human tumour cell line panel, 48 h
786-0 = tested on: 786-0
A498 = tested on: A498
A549 = tested on: A549
ACHN = tested on: ACHN
BT-549 = tested on: BT-549
CAKI-1 = tested on: CAKI-1
COLO 205 = tested on: COLO 205
DU-145 = tested on: DU-145
EKVX = tested on: EKVX
HCT-116 = tested on: HCT-116
HCT-15 = tested on: HCT-15
HL-60 = tested on: HL-60
HOP-62 = tested on: HOP-62
HOP-92 = tested on: HOP-92
HT-29 = tested on: HT-29
Hs-578T = tested on: Hs-578T
IGROV-1 = tested on: IGROV-1
K562 = tested on: K562
KM12 = tested on: KM12
LOX IMVI = tested on: LOX IMVI
M14 = tested on: M14
MCF7 = tested on: MCF7
MDA-MB-231 = tested on: MDA-MB-231
MDA-MB-435 = tested on: MDA-MB-435
MDA-N = tested on: MDA-N
MOLT-4 = tested on: MOLT-4
Malme-3M = tested on: Malme-3M
NCI-H226 = tested on: NCI-H226
NCI-H23 = tested on: NCI-H23
NCI-H460 = tested on: NCI-H460
NCI-H522 = tested on: NCI-H522
NCI/ADR-RES = tested on: NCI/ADR-RES
OVCAR-4 = tested on: OVCAR-4
OVCAR-5 = tested on: OVCAR-5
OVCAR-8 = tested on: OVCAR-8
PC-3 = tested on: PC-3
RXF 393 = tested on: RXF 393
SF-268 = tested on: SF-268
SF-295 = tested on: SF-295
SF-539 = tested on: SF-539
SK-MEL-28 = tested on: SK-MEL-28
SK-MEL-2 = tested on: SK-MEL-2
SK-MEL-5 = tested on: SK-MEL-5
SK-OV-3 = tested on: SK-OV-3
SN12C = tested on: SN12C
SNB-19 = tested on: SNB-19
SNB-75 = tested on: SNB-75
SR = tested on: SR
SW-620 = tested on: SW-620
T47D = tested on: T47D
TK-10 = tested on: TK-10
U-251 = tested on: U-251
UACC-257 = tested on: UACC-257
UACC-62 = tested on: UACC-62
UO-31 = tested on: UO-31
HCC 2998 = tested on: HCC 2998
OVCAR-3 = tested on: OVCAR-3
RPMI-8226 = tested on: RPMI-8226

`O=[N+]([O-])c1ccc(C(Nc2ccccc2)P(c2ccccc2)c2ccccc2)cc1` (centres undefined) was tested, and the GI50 (786-0) was > 100 µM (inactive), the GI50 (A498) was > 100 µM (inactive) and the GI50 (A549) was > 100 µM (inactive). The GI50 (ACHN) was > 100 µM (inactive), the GI50 (BT-549) was > 100 µM (inactive) and the GI50 (CAKI-1) was > 100 µM (inactive). For the same compound, the GI50 (COLO 205) was > 100 µM (inactive), the GI50 (DU-145) was > 100 µM (inactive) and the GI50 (EKVX) was > 100 µM (inactive). The GI50 (HCT-116) was 8.81 µM (inactive), the GI50 (HCT-15) was > 100 µM and the GI50 (HL-60) was > 100 µM (inactive). For the same compound, the GI50 (HOP-62) was 67.3 µM (inactive), the GI50 (HOP-92) was > 100 µM (inactive) and the GI50 (HT-29) was > 100 µM (inactive). For the same compound, the GI50 (Hs-578T) was > 100 µM (inactive), the GI50 (IGROV-1) was > 100 µM (inactive) and the GI50 (K562) was 22.5 µM (inactive). The GI50 (KM12) was > 100 µM (inactive), the GI50 (LOX IMVI) was > 100 µM (inactive) and the GI50 (M14) was > 100 µM (inactive). For the same compound, the GI50 (MCF7) was > 100 µM (inactive), the GI50 (MDA-MB-231) was > 100 µM (inactive) and the GI50 (MDA-MB-435) was > 100 µM (inactive). The GI50 (MDA-N) was > 100 µM (inactive), the GI50 (MOLT-4) was 24.1 µM (inactive) and the GI50 (Malme-3M) was > 100 µM (inactive). For the same compound, the GI50 (NCI-H226) was > 100 µM (inactive), the GI50 (NCI-H23) was > 100 µM (inactive) and the GI50 (NCI-H460) was > 100 µM (inactive). The GI50 (NCI-H522) was > 100 µM (inactive), the GI50 (NCI/ADR-RES) was > 100 µM (inactive) and the GI50 (OVCAR-4) was > 100 µM (inactive). For the same compound, the GI50 (OVCAR-5) was > 100 µM (inactive), the GI50 (OVCAR-8) was > 100 µM (inactive) and the GI50 (PC-3) was > 100 µM (inactive). The GI50 (RXF 393) was > 100 µM (inactive), the GI50 (SF-268) was > 100 µM (inactive) and the GI50 (SF-295) was 44.7 µM (inactive). The GI50 (SF-539) was > 100 µM (inactive), the GI50 (SK-MEL-28) was > 100 µM (inactive) and the GI50 (SK-MEL-2) was > 100 µM (inactive). For the same compound, the GI50 (SK-MEL-5) was > 100 µM (inactive), the GI50 (SK-OV-3) was > 100 µM (inactive) and the GI50 (SN12C) was > 100 µM (inactive). The GI50 (SNB-19) was > 100 µM (inactive), the GI50 (SNB-75) was > 100 µM (inactive) and the GI50 (SR) was > 100 µM (inactive). For the same compound, the GI50 (SW-620) was > 100 µM (inactive), the GI50 (T47D) was > 100 µM (inactive) and the GI50 (TK-10) was > 100 µM (inactive). For the same compound, the GI50 (U-251) was > 100 µM (inactive), the GI50 (UACC-257) was > 100 µM (inactive) and the GI50 (UACC-62) was > 100 µM (inactive). The GI50 (UO-31) was > 100 µM (inactive).
In the case of `CCOc1nc2sc3c(c2c(=O)n1CCSSCCn1c(OCC)nc2sc4c(c2c1=O)CCCC4)CCCC3`, the GI50 (786-0) is reported as > 100 µM (inactive), the GI50 (A498) is reported as > 100 µM (inactive) and the GI50 (A549) is reported as > 100 µM (inactive). For the same compound, the GI50 (ACHN) was > 100 µM (inactive), the GI50 (BT-549) was > 100 µM (inactive) and the GI50 (CAKI-1) was > 100 µM (inactive). The GI50 (COLO 205) was > 100 µM (inactive), the GI50 (DU-145) was > 100 µM (inactive) and the GI50 (EKVX) was > 100 µM (inactive). The GI50 (HCC 2998) was > 100 µM (inactive), the GI50 (HCT-116) was > 100 µM (inactive) and the GI50 (HCT-15) was > 100 µM. The GI50 (HOP-62) was > 100 µM (inactive), the GI50 (HT-29) was > 100 µM (inactive) and the GI50 (Hs-578T) was > 100 µM (inactive). The GI50 (IGROV-1) was > 100 µM (inactive), the GI50 (K562) was > 100 µM (inactive) and the GI50 (KM12) was > 100 µM (inactive). For the same compound, the GI50 (LOX IMVI) was > 100 µM (inactive), the GI50 (M14) was > 100 µM (inactive) and the GI50 (MCF7) was > 100 µM (inactive). For the same compound, the GI50 (MDA-MB-231) was > 100 µM (inactive), the GI50 (MDA-MB-435) was > 100 µM (inactive) and the GI50 (MDA-N) was > 100 µM (inactive). The GI50 (MOLT-4) was > 100 µM (inactive), the GI50 (Malme-3M) was > 100 µM (inactive) and the GI50 (NCI-H226) was 56.4 µM (inactive). For the same compound, the GI50 (NCI-H23) was > 100 µM (inactive), the GI50 (NCI-H460) was > 100 µM (inactive) and the GI50 (NCI/ADR-RES) was > 100 µM (inactive). For the same compound, the GI50 (OVCAR-3) was > 100 µM (inactive), the GI50 (OVCAR-4) was > 100 µM (inactive) and the GI50 (OVCAR-5) was > 100 µM (inactive). For the same compound, the GI50 (OVCAR-8) was 67.8 µM (inactive), the GI50 (PC-3) was > 100 µM (inactive) and the GI50 (RPMI-8226) was > 100 µM (inactive). For the same compound, the GI50 (SF-268) was > 100 µM (inactive), the GI50 (SF-295) was > 100 µM (inactive) and the GI50 (SF-539) was > 100 µM (inactive). The GI50 (SK-MEL-28) was > 100 µM (inactive), the GI50 (SK-MEL-2) was > 100 µM (inactive) and the GI50 (SK-MEL-5) was > 100 µM (inactive). The GI50 (SK-OV-3) was > 100 µM (inactive), the GI50 (SN12C) was > 100 µM (inactive) and the GI50 (SNB-19) was > 100 µM (inactive). For the same compound, the GI50 (SNB-75) was > 100 µM (inactive), the GI50 (SR) was > 100 µM (inactive) and the GI50 (SW-620) was > 100 µM (inactive). The GI50 (T47D) was > 100 µM (inactive), the GI50 (TK-10) was > 100 µM (inactive) and the GI50 (U-251) was > 100 µM (inactive). The GI50 (UACC-257) was > 100 µM (inactive), the GI50 (UACC-62) was > 100 µM (inactive) and the GI50 (UO-31) was > 100 µM (inactive).
